Results on 19 molecules are retold here after patent publication US10975056B2 (GlaxoSmithKline Intellectual Property Development Limited, priority 2016, dated 2021).

Each structure is given as a SMILES string. Several values for one entry are separate records, joined by “and”; a condition that tells them apart may be missing. Equal values may be shown once. Where a name gives a salt, the structure may show the parent alone. Read-outs that look alike come from different tables or passages of the source.

Test [1] has as its system erythroid progenitor cells (EPCs). The test can be described thus: Fetal hemoglobin (HbF) ELISA in day 7 erythroid progenitor cells. The test is classed as cell-based, human. The conditions noted are these: Homo sapiens, Erythroid progenitor cell, HbF ELISA, day 7 EPCs, 5 days; read-out: EPC ELISA (pEC50 category) (converted). On the procedure:
Day 7 EPCs were cultured in duplicate plates with serially diluted Compound A for 5 days at 37° C. Wells were then analyzed for either induction of fetal hemoglobin (HbF,HbF ELISA) or cell growth (Cell Titer-Glo). In both cases, signal was normalized to vehicle-control treated cells.
Culture, Expansion, and Characterization of Day 7 Erythroid Progenitor Cells (EPC)s
All donors provided written informed consent for use of their samples, and the collection and use of the samples received institutional review board approval. All cryopreserved human bone marrow CD34+ cells used here were obtained from AlICells (Emeryville, Calif.) and were generally from different donors. The CD34+ cells were cultured to generate EPCs at day 7. Briefly, 1 million cells were cultured in 5% CO2, 5% O2 at 37° C. in H3000 Stemspan media (StemCell Technologies Vancouver, BC, Canada) supplemented with 2 mM L-glutamine, 40 μg/mL human low-density lipoproteins (StemCell Technologies), 10 ng/mL recombinant human (rh) interleukin IL-3 (R&D Systems, Minneapolis, Minn.), 100 ng/mL rh stem cell factor (R&D Systems), and 0.5 U/mL rh erythropoietin (Invitrogen, Grand Island, N.Y.). Cells were split and refed on day 4 with complete culture media described above and harvested on day 7 for evaluation of erythroid marker expression and assessment of γ-globin induction. Day 7 EPCs were then frozen in liquid nitrogen at 5 to 10 million cells/mL in 95% fetal bovine serum (FBS; Invitrogen) with 5% DMSO for subsequent use.
At the time of compound treatment, frozen day 7 EPCs prepared as described above were thawed, washed once and re-suspended in complete culture media as described above with the exception of an increase of rhEPO to 3 U/mL. Cells were counted and diluted to […] for plating into assay plates. Cells were then dispensed, at 30 μL per well with Multidrop™ Combi Reagent Dispenser (Thermo Scientific), into 384-well cell culture plates into which test compounds were pre-dispensed at 100 nL/well. Black Clear Bottom (Greiner Bio-One; 781090) and White (Greiner Bio-One; 781080) plates were used for ELISA and Cell Titer-Glo assays, respectively. The final cell density in the assays is 1,000 cells per well, with final compound concentrations between 33 nM (highest) and […] (lowest) for the 22-points serial dilution.
Fetal Hemoglobin (HbF) ELISA
Coating anti-HbF Ab (Bethyl Lab; cat. A80-136A) was diluted by 100-fold in the coating buffer (0.05 M carbonate-bicarbonate, pH 9.6), and then 20 μL/well was added to a 384-well MaxiSorp ELISA plate (Thermo Fisher; cat. 464718). After 1 hour incubation at room temperature, the plates were washed twice with ELISA washing buffer (50 mM Tris, 0.05% Tween 20, pH 8.0) with an EL406 plate washer (BioTek, Winooski, Vt.). Then, 40 μL/well of blocking buffer consisting of 50 mM Tris and 1% BSA (pH 8.0) was added to the plate and stored at 4° C. with cover sheet overnight, or until time of the assay. The coated ELISA plates were stable for up to 30 days at 4° C. On the day of assay, the plates were washed twice with ELISA washing buffer prior to addition of cell lysate.
After 5 days at 37° C. with 5% CO2 cell culture plates for ELISA assay were put into −80° C. freezer for a minimum of 2 hours. After thawing at room temperature, 30 μL of cell lysis buffer (Invitrogen; cat. FNN0011, supplemented with 1× protease inhibitor) was added to each well and the resulting cell lysate was mixed eight times with a Cybi-Well (Jena, Germany) pipettor. Following the mixing procedure, 20 μL/well of lysate was transferred to the coated ELISA plates described above followed by a 1 hour incubation at room temperature. The ELISA assay plates were washed three times with ELISA wash buffer. 20 μL per well of 1:75,000 to 100,000 diluted horseradish peroxidase (HRP) conjugate detection antiHbF Ab (Bethyl Labs; cat. A80-136P, diluted in 50 mM Tris [pH 8.0], 1% BSA, 0.05% Tween-20) was then added. […]
(In an ELISA, binding on a coated surface is turned into a signal by an enzyme label.)

The target of the next test is DNMT1 (Homo sapiens, UniProt P26358). The test is described as follows: DNMT1 biochemical activity, breaklight assay and/or SPA assay.
The mark [2] stands for this setting: binned activity in either the breaklight or the SPA assay.
[3] abbreviates: binned activity in either the breaklight or the SPA assay, read-out: DNMT1 BioChemical (pIC50 category) (converted).

DNMT1, sequence (P26358 whole entry, looked up): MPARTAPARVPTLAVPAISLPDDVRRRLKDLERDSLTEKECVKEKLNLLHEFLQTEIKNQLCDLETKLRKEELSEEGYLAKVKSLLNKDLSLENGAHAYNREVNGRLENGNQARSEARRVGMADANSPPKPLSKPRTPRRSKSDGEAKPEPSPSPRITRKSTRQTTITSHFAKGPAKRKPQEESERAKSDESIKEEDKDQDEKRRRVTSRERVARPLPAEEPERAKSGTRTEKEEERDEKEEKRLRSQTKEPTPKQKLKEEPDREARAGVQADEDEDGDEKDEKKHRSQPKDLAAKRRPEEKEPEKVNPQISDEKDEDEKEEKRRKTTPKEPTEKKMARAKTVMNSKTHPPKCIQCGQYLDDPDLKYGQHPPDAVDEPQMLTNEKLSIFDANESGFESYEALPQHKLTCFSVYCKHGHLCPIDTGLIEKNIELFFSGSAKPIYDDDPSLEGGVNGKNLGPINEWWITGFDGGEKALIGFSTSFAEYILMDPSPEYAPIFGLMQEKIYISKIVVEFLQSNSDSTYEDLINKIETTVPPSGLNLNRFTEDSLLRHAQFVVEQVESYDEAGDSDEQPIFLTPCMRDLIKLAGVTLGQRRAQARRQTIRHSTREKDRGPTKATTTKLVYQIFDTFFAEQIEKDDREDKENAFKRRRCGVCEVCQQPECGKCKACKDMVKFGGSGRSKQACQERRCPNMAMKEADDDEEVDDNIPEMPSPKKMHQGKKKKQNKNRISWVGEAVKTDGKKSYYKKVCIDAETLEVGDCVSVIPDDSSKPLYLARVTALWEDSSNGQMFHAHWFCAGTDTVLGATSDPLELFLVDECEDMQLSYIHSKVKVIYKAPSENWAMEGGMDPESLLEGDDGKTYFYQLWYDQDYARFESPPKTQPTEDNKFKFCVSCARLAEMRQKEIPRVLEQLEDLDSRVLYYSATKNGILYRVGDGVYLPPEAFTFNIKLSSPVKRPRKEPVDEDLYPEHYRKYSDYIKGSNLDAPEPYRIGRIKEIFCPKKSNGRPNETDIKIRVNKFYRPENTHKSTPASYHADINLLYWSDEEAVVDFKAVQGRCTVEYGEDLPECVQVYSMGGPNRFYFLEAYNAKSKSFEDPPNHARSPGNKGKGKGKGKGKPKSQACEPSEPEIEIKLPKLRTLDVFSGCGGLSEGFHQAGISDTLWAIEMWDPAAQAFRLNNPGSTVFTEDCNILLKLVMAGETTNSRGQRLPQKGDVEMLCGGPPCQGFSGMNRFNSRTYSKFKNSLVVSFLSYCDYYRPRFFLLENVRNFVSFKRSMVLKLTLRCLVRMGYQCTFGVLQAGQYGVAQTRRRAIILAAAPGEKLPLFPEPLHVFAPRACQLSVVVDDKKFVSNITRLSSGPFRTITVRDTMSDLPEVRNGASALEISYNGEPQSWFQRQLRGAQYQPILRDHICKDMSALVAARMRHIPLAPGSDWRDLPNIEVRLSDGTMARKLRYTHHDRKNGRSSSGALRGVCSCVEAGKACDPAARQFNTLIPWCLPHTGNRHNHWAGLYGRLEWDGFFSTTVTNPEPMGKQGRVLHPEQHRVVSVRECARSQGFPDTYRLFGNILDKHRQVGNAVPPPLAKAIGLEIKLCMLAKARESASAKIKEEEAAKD

Regarding `CCc1c(C#N)c(SC(C(N)=O)c2ccccc2)nc(N2CCC(NC)C(F)C2)c1C#N` (stereo not drawn) [Example 507, 2((3,5-dicyano-4-ethyl-6-(3-fluoro-4-(methylamino)piperidin-1-yl)pyridin-2-yl)thio)-2-phenylacetamide], the EC50 in test [1] was less than 316 nM. In addition, on DNMT1 (setting [2]), the “DNMT1 BioChemical (pIC50 category)” value is reported as “D (Category D: ≥6.5)”.
Turning to `CCc1c(C#N)c(SC(C(N)=O)c2ncccc2F)nc(N2CCC(N)CC2)c1C#N` (stereo not drawn) [Example 583, 2-((6-(4-aminopiperidin-1-yl)-3,5-dicyano-4-ethylpyridin-2-yl)thio)-2-(3-fluoropyridin-2-yl)acetamide], the EC50 in test [1] is less than 316 nM. Further, on DNMT1 (setting [2]), the “DNMT1 BioChemical (pIC50 category)” value is “D (Category D: ≥6.5)”.
For `CCc1c(C#N)c(SC(C(N)=O)c2ccccc2)nc(N(C)CC(=O)N2C[C@@H](O)[C@@H](O)C2)c1C#N` (stereo partly drawn) [Example 647, 2-((3,5-dicyano-6-((2-((cis)-3,4-dihydroxypyrrolidin-1-yl)-2-oxoethyl)(methyl)amino)-4-ethylpyridin-2-yl)thio)-2-phenylacetamide], the EC50 in test [1] is 316 to 1000 nM. In addition, the “DNMT1 BioChemical (pIC50 category)” value at DNMT1 (setting [2]) is given as “D (Category D: ≥6.5)”.
Regarding `CC(=O)NCc1ccc(CSc2nc(N3CCCN(C)CC3)c(C#N)c(-c3ccco3)c2C#N)cc1` [Example 414], the EC50 in test [1] was 1000 to 31600 nM. In addition, on DNMT1 (setting [3]), the IC50 is 316 to 1000 nM.
For `CCc1c(C#N)c(SC(C(N)=O)c2ccc(OC)cn2)nc(N2CCCN(C)CC2)c1C#N` (stereo not drawn) [Example 221, 2-((3,5-Dicyano-4-ethyl-6-(4-methyl-1,4-diazepan-1-yl)pyridin-2-yl)thio)-2-(5-methoxypyridin-2-yl)acetamide], in test [1], the EC50 was less than 316 nM. Besides, the IC50 on DNMT1 (setting [3]) is 316 to 1000 nM.
Consider `COc1c(C#N)c(SCc2ccc(N(C)S(C)(=O)=O)cc2)nc(N2CCC(N)CC2)c1C#N` [Example 683, N-(4-(((6-(4-aminopiperidin-1-yl)-3,5-dicyano-4-methoxypyridin-2-yl)thio)methyl)phenyl)-N-methylmethanesulfonamide hydrochloride], for which the EC50 in test [1] was less than 316 nM. Besides, the “DNMT1 BioChemical (pIC50 category)” value on DNMT1 (setting [2]) is “D (Category D: ≥6.5)”. The IC50 at DNMT1 (breaklight assay and/or SPA assay, repeated experimental runs, read-out: average pIC50 against DNMT1 (converted)) is 316 to 1000 nM and 316 nM.
For the molecule `CCc1c(C#N)c(SC(C(N)=O)c2ccccc2)nc(N2CCC(NCCN)CC2)c1C#N` (stereo not drawn) [Example 645, 2-((6-(4-((2-aminoethyl)amino)piperidin-1-yl)-3,5-dicyano-4-ethylpyridin-2-yl)thio)-2-phenylacetamide dihydrochloride], the EC50 in test [1] is 316 to 1000 nM. Further, on DNMT1 (setting [2]), the “DNMT1 BioChemical (pIC50 category)” value is given as “D (Category D: ≥6.5)”.
For `CCc1c(C#N)c(SCc2ccc(CNC(=O)CN)cc2)nc(N(C)C)c1C#N` [Example 268, 2-Amino-N-(4-(((3,5-dicyano-6-(dimethylamino)-4-ethylpyridin-2-yl)thio)methyl)benzyl)acetamide], the EC50 in test [1] was 1000 to 31600 nM. Also, the IC50 on DNMT1 (setting [3]) is 1000 to 31600 nM.
With `CCc1c(C#N)c(SC(C(N)=O)c2ccccc2)nc(N2CCC[C@H](N)C2)c1C#N` (stereo partly drawn) [Example 612, 2-((6-((S)-3-aminopiperidin-1-yl)-3,5-dicyano-4-ethylpyridin-2-yl)thio)-2-phenylacetamide], the EC50 in test [1] is less than 316 nM. For the same molecule, at DNMT1 (setting [2]), the “DNMT1 BioChemical (pIC50 category)” value is “D (Category D: ≥6.5)”.
In the case of `CCc1c(C#N)c(C)nc(SCc2ccc(CNC(C)=O)cc2)c1C#N` [Example 284, N-(4-(((3,5-Dicyano-4-ethyl-6-methylpyridin-2-yl)thio)methyl)benzyl)acetamide], in test [1], the EC50 is more than 31600 nM. For the same molecule, the IC50 at DNMT1 (setting [3]) is 316 to 1000 nM.
Take `CCc1c(C#N)c(SC(C(N)=O)c2ccccc2)nc(N(C)CCN(CC)CC)c1C#N` (stereo not drawn) [Example 515, 2-((3,5-dicyano-6-((2-(diethylamino)ethyl)(methyl)amino)-4-ethylpyridin-2-yl)thio)-2-phenylacetamide]: the EC50 in test [1] was less than 316 nM. The “DNMT1 BioChemical (pIC50 category)” value at DNMT1 (setting [2]) is reported as “D (Category D: ≥6.5)”.
With `CCc1c(C#N)c(SC(C(N)=O)c2ccccc2)nc(N2CC(CO)C2)c1C#N` (stereo not drawn) [Example 262, 2-((3,5-Dicyano-4-ethyl-6-(3-(hydroxymethyl)azetidin-1-yl)pyridin-2-yl)thio)-2-phenylacetamide], the EC50 in test [1] is 1000 to 31600 nM. Besides, on DNMT1 (setting [2]), the “DNMT1 BioChemical (pIC50 category)” value is “D (Category D: ≥6.5)”.
Turning to `CCc1c(C#N)c(S[C@@H](C(N)=O)c2ccccc2)nc(N2CC[C@@](O)(CO)C2)c1C#N` [Example 654, (R)-2-((3,5-dicyano-4-ethyl-6-((S)-3-hydroxy-3-(hydroxymethyl)pyrrolidin-1-yl)pyridin-2-yl)thio)-2-phenylacetamide], in test [1], the EC50 was 1000 to 31600 nM. At DNMT1 (setting [2]), the “DNMT1 BioChemical (pIC50 category)” value is on record as “D (Category D: ≥6.5)”.
With `CCc1c(C#N)c(SC(C(N)=O)c2ccc(F)cc2)nc(N2CCN(C(C)(C)CO)CC2)c1C#N` (stereo not drawn) [Example 222, 2-((3,5-Dicyano-4-ethyl-6-(4-(1-hydroxy-2-methylpropan-2-yl)piperazin-1-yl)pyridin-2-yl)thio)-2-(4-fluorophenyl)acetamide], the EC50 in test [1] was 316 to 1000 nM. Moreover, the IC50 on DNMT1 (setting [3]) was 1000 to 31600 nM.
Turning to `CCc1c(C#N)c(S[C@@H](C(N)=O)c2ccccc2)nc(N2CC[C@](F)(CN)C2)c1C#N` [Example 638, (R)-2-((6-((S)-3-(aminomethyl)-3-fluoropyrrolidin-1-yl)-3,5-dicyano-4-ethylpyridin-2-yl)thio)-2-phenylacetamide], the EC50 in test [1] is 316 to 1000 nM. At DNMT1 (setting [2]), the “DNMT1 BioChemical (pIC50 category)” value is listed as “D (Category D: ≥6.5)”.
With `CCc1c(C#N)c(SC(C(N)=O)c2ccccc2)nc(N2CCC(OC3COC3)CC2)c1C#N` (stereo not drawn) [Example 231, 2-((3,5-Dicyano-4-ethyl-6-(4-(oxetan-3-yloxy)piperidin-1-yl)pyridin-2-yl)thio)-2-phenylacetamide], the EC50 in test [1] was 316 to 1000 nM. Also, the IC50 on DNMT1 (setting [3]) is 316 to 1000 nM.
Take `CCc1c(C#N)c(SC(C(N)=O)c2ccccc2)nc(N2CCC(N3CCC[C@H]3CO)CC2)c1C#N` (stereo partly drawn) [Example 441, 2-((3,5-dicyano-4-ethyl-6-(4-((S)-2-(hydroxymethyl)pyrrolidin-1-yl)piperidin-1-yl)pyridin-2-yl)thio)-2-phenylacetamide]: the EC50 in test [1] was less than 316 nM. Further, the “DNMT1 BioChemical (pIC50 category)” value at DNMT1 (setting [2]) was “D (Category D: ≥6.5)”.
In the case of `CCc1c(C#N)c(S[C@@H](C(N)=O)c2ccccc2)nc(N2CCO[C@H](CN)C2)c1C#N` [Example 561, (R)-2-((6-((R)-2-(aminomethyl)morpholino)-3,5-dicyano-4-ethylpyridin-2-yl)thio)-2-phenylacetamide, Hydrochloride], the EC50 in test [1] was less than 316 nM. The “DNMT1 BioChemical (pIC50 category)” value on DNMT1 (setting [2]) is on record as “D (Category D: ≥6.5)”.
On to `CCc1c(C#N)c(SC(C(N)=O)c2ccccc2)nc(N2CCC(OC(=O)[C@@H](N)C(C)C)CC2)c1C#N` (stereo partly drawn) [Example 274, 1-(6-((2-Amino-2-oxo-1-phenylethyl)thio)-3,5-dicyano-4-ethylpyridin-2-yl)piperidin-4-yl (2S)-2-amino-3-methylbutanoate], for which, in test [1], the EC50 was less than 316 nM. For the same molecule, at DNMT1 (setting [2]), the “DNMT1 BioChemical (pIC50 category)” value was “D (Category D: ≥6.5)”.
